This is an account of results in patent publication EP2712863B1, “Novel inhibitors of bacterial biofilms and related methods” (Sequoia Sciences, Inc., priority 2012, dated 2014).

SMILES strings stand for the structures. In brackets after ≈: the same amount, converted by molar mass.

One assay concerns E. coli. Put plainly: Biofilm growth assay (spreading biofilm on semi-solid agar). The class given is cell-based. The following applies: Table 4, concentration that reduces the area of the spreading biofilm by >= 85%; for IC85: Escherichia coli, read-out: E. coli. A digest of the protocol: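 Spreading (swarming) biofilm on semi-solid agar: E. coli on LB with 0.6% agar and 0.5% glucose; P. aeruginosa on M8 agar with 0.2% glucose, 100 µM CaCl2, 1 mM MgSO4, 0.5% Casamino acids. Compound in medium; 5 µL overnight culture spotted centrally, 37°C overnight. Value: concentration (µg/ml) giving ≥85% reduction in spread area versus negative control.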

Another assay relates to P. aeruginosa. The description is as above. The class given is cell-based. The following applies: Table 4, concentration that reduces the area of the spreading biofilm by >= 85%; for IC85: Pseudomonas aeruginosa, read-out: P. aeruginosa.

On to `CC1(C)CC[C@]2(C(=O)Nc3nnc(S)s3)CC[C@]3(C)C(=CCC4[C@@]5(C)Cc6c(n[nH]c6N)C(C)(C)C5CC[C@]43C)C2C1` (stereo partly drawn) [Compound 74, (4aS,6aS,6bR,13aR)-12-Amino-N-(5-mercapto-1,3,4-thiadiazol-2-yl)-2,2,6a,6b,9,9,13a-heptamethyl-2,3,4,4a,5,6,6a,6b,7,8,8a,9,11,13,13a,13b,14,15b-octadecahydro-1H-chryseno[1,2-f]indazole-4a-carboxamide], for which the results for the IC85 in the assay on E. coli and with P. aeruginosa were more than 2 µg/mL and 1 µg/mL (≈ 1.64 µM), respectively.
For `CC1(C)CC[C@]2(c3nnc(S)[nH]3)CC[C@]3(C)C(=CCC4[C@@]5(C)Cc6c(n[nH]c6N)C(C)(C)C5CC[C@]43C)C2C1` (stereo partly drawn) [Compound 75, 5-((4aS,6aS,6bR,13aR)-12-Amino-2,2,6a,6b,9,9,13a-heptamethyl-2,3,4,4a,5,6,6a,6b,7,8,8a,9,11,13,13a,13b,14,15b-octadecahydro-1H-chryseno[1,2-f]indazol-4a-yl)-4H-1,2,4-triazole-3-thiol], in that order: 1 µg/mL (≈ 1.82 µM) and 0.5 µg/mL (≈ 0.911 µM).
Turning to `CC1(C)CC[C@]2(C(=O)n3cnc(S)n3)CC[C@]3(C)C(=CCC4[C@@]5(C)Cc6c(n[nH]c6N)C(C)(C)C5CC[C@]43C)C2C1` (stereo partly drawn) [Compound 76, ((4aS,6aS,6bR,13aR)-12-Amino-2,2,6a,6b,9,9,13a-heptamethyl-2,3,4,4a,5,6,6a,6b,7,8,8a,9,11,13,13a,13b,14,15b-octadecahydro-1H-chryseno[1,2-f]indazol-4a-yl)(3-mercapto-1H-1,2,4-triazol-1-yl)methanone], the IC85 in the assay on E. coli was found to be 2 µg/mL (≈ 3.47 µM); in the assay on P. aeruginosa it was 0.5 µg/mL (≈ 0.867 µM).
In the case of `Cc1nnc(S)n1NC(=O)[C@]12CCC(C)(C)CC1C1=CCC3[C@@]4(C)Cc5c(n[nH]c5N)C(C)(C)C4CC[C@@]3(C)[C@]1(C)CC2` (stereo partly drawn) [Compound 77, (4aS,6aS,6bR,13aR)-12-Amino-N-(3-mercapto-5-methyl-4H-1,2,4-triazol-4-yl)-2,2,6a,6b,9,9,13a-heptamethyl-2,3,4,4a,5,6,6a,6b,7,8,8a,9,11,13,13a,13b,14,15b-octadecahydro-1H-chryseno[1,2-f]indazole-4a-carboxamide], the IC85 with E. coli came to 2 µg/mL (≈ 3.3 µM); in the assay with P. aeruginosa, 1 µg/mL (≈ 1.65 µM).
For `CC1(C)CC[C@]2(c3nnc(O)s3)CC[C@]3(C)C(=CCC4[C@@]5(C)Cc6c(n[nH]c6N)C(C)(C)C5CC[C@]43C)C2C1` (stereo partly drawn) [Compound 78, 5-((4aS,6aS,6bR,13aR)-12-Amino-2,2,6a,6b,9,9,13a-heptamethyl-2,3,4,4a,5,6,6a,6b,7,8,8a,9,11,13,13a,13b,14,15b-octadecahydro-1H-chryseno[1,2-f]indazol-4a-yl)-1,3,4-thiadiazol-2-ol], in that order: 1 µg/mL (≈ 1.82 µM) and more than 1 µg/mL.
For `CC1(C)CC[C@]2(C(=O)Nc3cc(S)n[nH]3)CC[C@]3(C)C(=CCC4[C@@]5(C)Cc6c(n[nH]c6N)C(C)(C)C5CC[C@]43C)C2C1` (stereo partly drawn) [Compound 79, (4aS,6aS,6bR,13aR)-12-Amino-N-(3-mercapto-1H-pyrazol-5-yl)-2,2,6a,6b,9,9,13a-heptamethyl-2,3,4,4a,5,6,6a,6b,7,8,8a,9,11,13,13a,13b,14,15b-octadecahydro-1H-chryseno[1,2-f]indazole-4a-carboxamide], in that order: 0.5 µg/mL (≈ 0.846 µM) and 0.25 µg/mL (≈ 0.423 µM).
Consider `CC1(C)CC[C@]2(C(=O)Nc3nnc(S(N)(=O)=O)s3)CC[C@]3(C)C(=CCC4[C@@]5(C)Cc6c(n[nH]c6N)C(C)(C)C5CC[C@]43C)C2C1` (stereo partly shown) [Compound 80], for which the “E. coli” value in the assay with E. coli is 1 µg/mL. Moreover, the “P. aeruginosa” value in the assay on P. aeruginosa was found to be 1 µg/mL.
For the compound `CC1(C)CC[C@]2(c3n[nH]c(O)c3CCO)CC[C@]3(C)C(=CCC4[C@@]5(C)Cc6c(n[nH]c6N)C(C)(C)C5CC[C@]43C)C2C1` (stereo partly drawn) [Compound 81, 3-((4aS,6aS,6bR,13aR)-12-Amino-2,2,6a,6b,9,9,13a-heptamethyl-2,3,4,4a,5,6,6a,6b,7,8,8a,9,11,13,13a,13b,14,15b-octadecahydro-1H-chryseno[1,2-f]indazol-4a-yl)-4-(2-hydroxyethyl)-1H-pyrazol-5-ol], the figures for the IC85 in the assay on E. coli and in the assay on P. aeruginosa were 1 µg/mL (≈ 1.74 µM) and 0.5 µg/mL (≈ 0.868 µM), respectively.
For `Cc1c([C@]23CCC(C)(C)CC2C2=CCC4[C@@]5(C)Cc6c(n[nH]c6N)C(C)(C)C5CC[C@@]4(C)[C@]2(C)CC3)n[nH]c1O` (stereo partly drawn) [Compound 82, 3-((4aS,6aS,6bR,13aR)-12-Amino-2,2,6a,6b,9,9,13a-heptamethyl-2,3,4,4a,5,6,6a,6b,7,8,8a,9,11,13,13a,13b,14,15b-octadecahydro-1H-chryseno[1,2-f]indazol-4a-yl)-4-methyl-1H-pyrazol-5-ol], in that order: 1 µg/mL (≈ 1.83 µM) and 0.5 µg/mL (≈ 0.916 µM).
Regarding `CC1(C)CC[C@]2(c3n[nH]c(O)c3F)CC[C@]3(C)C(=CCC4[C@@]5(C)Cc6c(n[nH]c6N)C(C)(C)C5CC[C@]43C)C2C1` (stereo partly drawn) [Compound 83, 3-((4aS,6aS,6bR,13aR)-12-Amino-2,2,6a,6b,9,9,13a-heptamethyl-2,3,4,4a,5,6,6a,6b,7,8,8a,9,11,13,13a,13b,14,15b-octadecahydro-1H-chryseno[1,2-f]indazol-4a-yl)-4-fluoro-1H-pyrazol-5-ol], the IC85 with E. coli was found to be 0.5 µg/mL (≈ 0.909 µM); with P. aeruginosa, 0.25 µg/mL (≈ 0.455 µM).
The matching figures for `CC1(C)CC[C@]2(c3n[nH]c(O)c3CCN)CC[C@]3(C)C(=CCC4[C@@]5(C)Cc6c(n[nH]c6N)C(C)(C)C5CC[C@]43C)C2C1` (stereo partly drawn) [Compound 84, 3-((4aS,6aS,6bR,13aR)-12-Amino-2,2,6a,6b,9,9,13a-heptamethyl-2,3,4,4a,5,6,6a,6b,7,8,8a,9,11,13,13a,13b,14,15b-octadecahydro-1H-chryseno[1,2-f]indazol-4a-yl)-4-(2-aminoethyl)-1H-pyrazol-5-ol]: 0.5 µg/mL (≈ 0.87 µM) and 0.125 µg/mL (≈ 0.217 µM).
For `CN(C)CCc1c([C@]23CCC(C)(C)CC2C2=CCC4[C@@]5(C)Cc6c(n[nH]c6N)C(C)(C)C5CC[C@@]4(C)[C@]2(C)CC3)n[nH]c1O` (stereo partly drawn) [Compound 85, 3-((4aS,6aS,6bR,13aR)-12-Amino-2,2,6a,6b,9,9,13a-heptamethyl-2,3,4,4a,5,6,6a,6b,7,8,8a,9,11,13,13a,13b,14,15b-octadecahydro-1H-chryseno[1,2-f]indazol-4a-yl)-4-(2-(dimethylamino)ethyl)-1H-pyrazol-5-ol], in that order: 1 µg/mL (≈ 1.66 µM) and 0.5 µg/mL (≈ 0.829 µM).
The matching figures for `CNCCc1c([C@]23CCC(C)(C)CC2C2=CCC4[C@@]5(C)Cc6c(n[nH]c6N)C(C)(C)C5CC[C@@]4(C)[C@]2(C)CC3)n[nH]c1O` (stereo partly drawn) [Compound 86, 3-((4aS,6aS,6bR,13aR)-12-Amino-2,2,6a,6b,9,9,13a-heptamethyl-2,3,4,4a,5,6,6a,6b,7,8,8a,9,11,13,13a,13b,14,15b-octadecahydro-1H-chryseno[1,2-f]indazol-4a-yl)-4-(2-(methylamino)ethyl)-1H-pyrazol-5-ol]: 2 µg/mL (≈ 3.4 µM) and 0.5 µg/mL (≈ 0.849 µM).
As to `CC1(C)CC[C@]2(c3n[nH]c(O)c3CCNC(N)=O)CC[C@]3(C)C(=CCC4[C@@]5(C)Cc6c(n[nH]c6N)C(C)(C)C5CC[C@]43C)C2C1` (stereo partly drawn) [Compound 87, 1-(2-(3-((4aS,6aS,6bR,13aR)-12-Amino-2,2,6a,6b,9,9,13a-heptamethyl-2,3,4,4a,5,6,6a,6b,7,8,8a,9,11,13,13a,13b,14,15b-octadecahydro-1H-chryseno[1,2-f]indazol-4a-yl)-5-hydroxy-1H-pyrazol-4-yl)ethyl)urea], the figures for the IC85 in the assay with E. coli and with P. aeruginosa were 1 µg/mL (≈ 1.62 µM) and 0.5 µg/mL (≈ 0.809 µM), respectively.
